Results taken from patent publication US5962456A, “N-acylpiperazine derivative, anti-ulcer drug, and antibacterial drug” (Shiseido Co., Ltd., priority 1996, dated 1999).

Legend:
stress ulcer = assay: WIS: Restraint and Water Immersion Stress-Induced Ulcer Inhibition Test; assay type: in vivo, rat (male Crj:SD or Slc:SD); details: 100 mg/kg oral, rats, 7 hours restraint and water immersion (21° C.)
Protocol: WIS: Restraint and Water Immersion Stress-Induced Ulcer Inhibition Test
The degree of inhibition of the stress ulcer formation is tested.
Male Crj:SD or Slc:SD rats (6 to 7-week-old) were fasted overnight, but allowed free access to water. Each group has 5 to 8 of these rats. […] To a control group, the vehicle was administered. 10 minutes later, the rats were placed in a stress cage and immersed to the level of xipfoid process in a water bath (21° C.) for 7 hours. At the end of the stress, the rats were sacrificed by inhalation of ether or carbon dioxide. Then, the stomach of each was removed, inflated by injecting 10 ml of 5% formalin neutral buffer solution, and immersed in 1% formalin neutral buffer solution for 30 minutes or more to be fixed. The stomach was incised along the greater curvature and then the length of each erosion in the glandular portion was determined under dissecting microscope. The sum of the length of erosions per stomach was defined as ulcer index (UI).
The effect obtained when 100 mg/kg of the sample compound had been administered was expressed as ulcer formation inhibitory rate (%) as follows:
ulcer formation inhibitory rate (%)=(1-(UI in sample group/UI in control group))×100

Helicobacter pyroli = assay: AHP: Antibacterial Activity Test Against Helicobacter pyroli (agar dilution); assay type: cell-based, HP NCTC 11637; details: Helicobacter, NCTC11637, 168 h; HP NCTC 11637, agar dilution, 7 days; read-out: AHP minimum inhibitory concentration (MIC)
Protocol: AHP: Antibacterial Activity Test Against Helicobacter pyroli i) Meaning The minimum inhibitory concentration (MIC) against Helicobacter pyroli (microaerophilic gram-negative bacterium which is supposed to deeply involve in pathogenesis, relapse, and recrudescence of ulcer, referred to as "HP" in the following) is measured so as to find out compounds which have antimicrobial activity against Helicobacter pyroli. ii) Method MICs were determined by the agar dilution method. The stock culture (-80° C.) of HP NCTC 11637 was thawed and cultured on tripticase soy agar supplemented with 5% sheep blood at 37° C. in an atmosphere of 5% O2, 10% CO2, and 85% N2. Grown colonies were transferred to the same plate and precultured for 3 days under the same condition. […] 10 μl of the bacterial suspension for inoculation (about 10^3 cfu) was inoculated on this plate and cultured for 7 days under the same condition as that of preculture. […] As the result of the comparison of these plates, when the number of the colony on the plate containing the sample compound was less than 90% with respect to that on the control plate, it was represented by "+". Contrary to this, when there was 90% or more, it was represented by "-".

For `CC(C)=CCC/C(C)=C/COc1ccc(C(=O)N2CCN(CCNC(=O)c3ccc4c(c3)OCO4)CC2)cc1` [Example 1, 1-(4-geranyloxy)benzoyl-4-[2-(piperonyloylamino)ethyl]piperazine], which “WIS ulcer formation inhibitory rate” value (stress ulcer) is on record?
Its value is 81%.

And the MIC (Helicobacter pyroli)?
Its MIC is < 3.13 µg/mL.
